Reference: US20230257444A1, “FUSION PROTEIN AND COMBINATIONS THEREOF” (Agency for Science, Technology and Research, priority 2020, published 2023)

How the values were obtained:
[1] = tested on: SC5314 Candida albicans; experiment: In vitro combination therapy checkerboard dilution assay (Amphotericin B & hDectin1-Fc) with human primary macrophages; assay type: cell-based; conditions: 24 hours, 37° C.
[2] = tested on: Candida albicans; experiment: Minimum inhibitory concentration assay (CLSI reference method); assay type: cell-based; conditions: 37° C.
Source text: Linker conjugation site and its length can affect the activity of drug in the way it is able to interact with its target as a result of a change in preferred conformation. Amphotericin B has two possible sites of conjugation: the carboxylic acid on the macrocyclic ring (C-linked) and the amine on the sugar (N-linked). To investigate how conjugation to each of these sites affects the activity of Amphotericin B, polyethylene glycol (PEG) linkers of three different repeat units were attached to them (FIG. 20) and their MIC of Candida albicans evaluated against the unconjugated free Amphotericin B.
The MIC assay of the N-linked and C-linked PEG conjugated Amphotericin B was conducted for 3 different PEG lengths of 4, 12 and 24 repeat units versus unconjugated Amphotericin B (Table 3). The PEG conjugated Amphotericin B and free Amphotericin B were diluted and incubated at 37° C. for 24 hrs with […] Candida albicans cells/well according to the CLSI reference method for antifungal susceptibility testing of yeasts.

24hr MIC [2]: 0.75 μm
Structure (SMILES): C[C@@H]1[C@H](O)[C@@H](C)/C=C/C=C/C=C/C=C/C=C/C=C/C=C/[C@H](O[C@@H]2O[C@H](C)[C@@H](O)[C@H](N)[C@@H]2O)C[C@@H]2O[C@](O)(C[C@@H](O)C[C@@H](O)[C@H](O)CC[C@@H](O)C[C@@H](O)CC(=O)O[C@H]1C)C[C@H](O)[C@H]2C(=O)O [Amphotericin B]
basal MFC of Amphotericin B ([1]; absence of hDectin1-Fc): 0.11 µM
MFC of Amphotericin B ([1]; hDectin1-Fc concentration of 100 µg/ml): 0.06 µM
